Laboratory results: a melting point compilation (Tetko et al.)

| SMILES | melting point [°C] |
| --- | --- |
| COc1ccc(C)cc1C1(C)NC(=O)N(CC(=O)O)C1=O (stereo not drawn) | 188 to 190 |
| CS(=O)(=O)c1ccc2c(c1)CCCN2 | 112 to 114 |
| O=C(O)C(=O)c1cnn(-c2ccccc2)c1 | 168 to 170 |
| C=CC(=O)NC(=O)NC12CC3CC(CC(C3)C1)C2 | 211 to 213 |
| COc1cc(CC#N)ccc1SC(F)(F)F | 59 to 61 |
| COC(=O)c1ccc(C(=O)c2cc[nH]c2)cc1 | 159 to 161 |
| COC(=O)Nc1ccccc1C(=O)O | 177 to 179 |
| O=CNc1cc([N+](=O)[O-])ccc1Cl | 183 to 185 |
| COc1ccc(C2C(C(N)=O)CC(=O)N2C)cc1 (stereo not drawn) | 208 to 210 |
| COc1ccc(Cl)cc1-c1cc(N)[nH]n1 | 126 to 128 |
| O=C(O)Cn1nnc(-c2ccco2)n1 | 216 to 218 |
| O=C1CCS(=O)(=O)O1 | 69 to 71 |
| N#Cc1cccc(C2(C(=O)O)CC2)c1 | 182 to 184 |
| CN1C(=O)CCC(C(N)=O)C1c1cccc(Cl)c1 (stereo not drawn) | 215 to 217 |
| CN(C)C(=O)c1ccc(Cl)nn1 | 137 to 139 |
| O=C(Nc1ccc(-c2ccccc2)cc1)OCC(F)(F)F | 168 to 170 |
| CCS(=O)(=O)Nc1ccc(N)cc1 | 88 to 90 |
| NC(=S)Cc1cn2cc(Cl)cc(Cl)c2n1 | 189 to 191 |
| Cc1ccc(CCC(=O)NCC(=O)O)cc1 | 118 to 120 |
| CC(=O)CC(=O)Nc1cccc(F)c1 | 81 to 83 |
| NC(=O)COc1ccc(C(=O)O)cc1 | 273 to 275 |
| O=C(NCCCc1ccccc1)c1ccccc1O | 77 to 79 |
| Cc1cncc(-n2ccnc2)c1 | 88 to 90 |
| OCCc1ccc(O)c(-n2nc3ccccc3n2)c1 | 120 to 123 |
| Cc1cc(Br)c2ccccc2c1N | 79 to 81 |

| SMILES | melting point [°C] |
| --- | --- |
| C/C(N)=C\C#N | 4 to 6 |
| COC(=O)c1ccc(CN2C(=O)CSC2=O)cc1 | 117 to 119 |
| Cc1ccc(C)c(S(=O)(=O)NN)c1 | 75 to 77 |
| O=C(O)CCc1ccccn1 | 134 to 136 |
| O=S(=O)(Cl)c1cc(Br)cnc1Cl | 61 to 63 |
| Sc1nnc(-c2ccncc2)n1C1CC1 | 303 to 305 |
| N#CC1(N)CCCCC1 | 25 to 27 |
| COc1cc(C(=O)O)ccc1OCc1ccccc1 | 174 to 176 |
| Cc1cc(C(=O)O)c2[nH]ncc2c1 | 286 to 288 |
| COCCOc1ccc(C(=O)O)cn1 | 134 to 136 |
| Cc1ccc(Nc2nnc(S)s2)c(C)c1 | 172 to 174 |
| NNC(=O)c1nnc(-c2ccccc2)o1 | 173 to 175 |
| CCOC(=O)c1cnn2c(C(=O)OCC)c(CCCO)cnc12 | 70 to 72 |
| NC(=S)Nc1ccccc1OC(F)(F)F | 156 to 158 |
| CN1CCCNc2nc3ccccc3nc21 | 146 to 148 |
| Cc1cccc(NC(=O)C2CCCNC2)n1 (stereo not drawn) | 124 to 126 |
| O=C(O)c1cccc(S(=O)(=O)Nc2ccc(Cl)cc2)c1 | 250 to 252 |
| O=C(O)c1cccc(Nc2cnccn2)c1 | 239 to 241 |
| O=C(O)c1ccccc1OCc1cscn1 | 117 to 121 |
| COc1ccc(CC(N)=O)cc1F | 173 to 175 |
| CCOC(=O)CNC(=O)CC | 50 to 52 |
| NNc1nc(C(F)(F)F)cs1 | 122 to 124 |
| CCCCCS(=O)(=O)CC(=O)O | 69 to 71 |
| COC(=O)c1nc[nH]n1 | 180 to 182 |
| CC(C)(C)NS(=O)(=O)c1cc(C(=O)O)ccc1Cl | 212 to 214 |

| SMILES | melting point [°C] |
| --- | --- |
| O=C(CCl)Nc1nnc(-c2ccccc2)o1 | 219 to 221 |
| O=[N+]([O-])c1cc(Cc2ccccc2)ccc1O | 70 to 72 |
| O=Cc1ccc(-c2nn(-c3ccccc3)cc2C=O)o1 | 146 to 148 |
| Cc1nn(-c2ccc(F)cc2)c(Cl)c1C(=O)O | 253 to 255 |
| Nc1nc(-c2ccccc2Cl)co1 | 137 to 139 |
| O=C(O)c1cc(-c2ccc(OC(F)F)cc2)nc2ccccc12 | 224 to 226 |
| Cc1cc(S(N)(=O)=O)sc1Br | 149 to 151 |
| Nc1ccc2c(C(=O)O)c[nH]c2c1 | 193 to 195 |
| CC(C)Cc1ccc(C(=O)CCC(=O)O)cc1 | 113 to 115 |
| Cc1cccc(-n2c(=O)[nH]c3cc(C(=O)O)ccc3c2=O)c1 | 344 to 346 |
| C#CCn1cnc2c(N)ncnc21 | 184 to 186 |
| CCCCCn1nc(C(=O)O)c2ccccc2c1=O | 144 to 146 |
| O=C(CN=C=S)NC1CC1 | 169 to 171 |
| Cc1c(Br)cc(C(=O)O)cc1S(=O)(=O)Cl | 183 to 185 |
| BrCCCOc1ccc2c(c1)OCO2 | 60 to 62 |
| Clc1nccc(N2CCOCC2)n1 | 111 to 113 |
| CCNC(=O)NCCO | 53 to 55 |
| O=C(O)Cn1[nH]c(=O)ccc1=O | 235 to 237 |
| Cc1cccc(-c2nc3cc(F)ccc3[nH]2)c1O | 251 to 253 |
| NC(=O)c1cccc([N+](=O)[O-])c1O | 154 to 156 |
| O=C(Nc1cccc(-c2nnco2)c1)OCC(F)(F)F | 170 to 172 |
| O=C(O)COc1ccc(N2CCCC2=O)cc1 | 150 to 155 |
| O=C(O)c1cc(Cl)c2ccccc2c1O | 228 to 230 |
